Data: ChEMBL document CHEMBL1125401, “CoMFA analysis of the interactions of antipicornavirus compounds in the binding pocket of human rhinovirus-14” (J Med Chem, 1992)
≈ marks a conversion by molar mass, not a printed value.

test system: rhinovirus B14; test: Compound was evaluated for inhibitory effect against human Rhinovirus-14; format: functional; conditions: not given

Row | MIC | Structure (SMILES)
1 | 0.09 µM (≈ 0.0426 µg/mL) | OCCOCOCc1cc(CCCCCOc2c(Cl)cc(C3=NCCO3)cc2Cl)on1

same assay, conditions: Rhinovirus B; read-out: MIC

Row | MIC | Structure (SMILES)
2 | 0.51 µM (≈ 0.16 µg/mL) | Cc1cc(CCCCCOc2ccc(C3=NCCO3)cc2)on1
3 | 2.41 µM (≈ 0.841 µg/mL) | Cc1cc(CCCCCOc2ccc(C3=NCCO3)cc2Cl)on1
4 | 0.05 µM (≈ 0.0178 µg/mL) | Cc1cc(CCCCCCCOc2ccc(C3=NC(C)CO3)cc2)on1 (stereo not given)
5 | 0.16 µM (≈ 0.0593 µg/mL) | Cc1cc(CCCCCCCOc2ccc(C3=NC(C)(C)CO3)cc2)on1

More lines, now with the values behind:

Row | Structure (SMILES) | MIC
6 | Cc1cc(-c2nnn(C)n2)cc(C)c1OCCCCCc1cc(COCOCCO)no1 | 0.06 µM (≈ 0.0267 µg/mL)
7 | CCC1COC(c2ccc(OCCCCCCCc3cc(C)no3)cc2)=N1 (stereo not given) | 0.03 µM (≈ 0.0111 µg/mL)
8 | OCCOCOCc1cc(CCCCCOc2c(Cl)cc(C3=NCCO3)cc2Cl)on1 | 0.06 µM (≈ 0.0284 µg/mL)
9 | Cc1cc(CCCCCOc2ccc(-c3nc(C)c(C)o3)cc2)on1 | 0.14 µM (≈ 0.0477 µg/mL)
10 | Cc1cc(CCCCCOc2c(Cl)cc(C3=NCCO3)cc2Cl)on1 [WIN-54954] | 1.5 µM (≈ 0.575 µg/mL)
